From patent US20260022143A1, “Cyclic Peptide Inhibitors of IL-23” (JANSSEN PHARMACEUTICA NV, priority 2022, published 2026) come the findings set out here.

The target in one series is T1, IL-23R (Homo sapiens, UniProt Q5VWK5).
T1 construct: host or cells: HEK293
T1 sequence (Q5VWK5 24-629): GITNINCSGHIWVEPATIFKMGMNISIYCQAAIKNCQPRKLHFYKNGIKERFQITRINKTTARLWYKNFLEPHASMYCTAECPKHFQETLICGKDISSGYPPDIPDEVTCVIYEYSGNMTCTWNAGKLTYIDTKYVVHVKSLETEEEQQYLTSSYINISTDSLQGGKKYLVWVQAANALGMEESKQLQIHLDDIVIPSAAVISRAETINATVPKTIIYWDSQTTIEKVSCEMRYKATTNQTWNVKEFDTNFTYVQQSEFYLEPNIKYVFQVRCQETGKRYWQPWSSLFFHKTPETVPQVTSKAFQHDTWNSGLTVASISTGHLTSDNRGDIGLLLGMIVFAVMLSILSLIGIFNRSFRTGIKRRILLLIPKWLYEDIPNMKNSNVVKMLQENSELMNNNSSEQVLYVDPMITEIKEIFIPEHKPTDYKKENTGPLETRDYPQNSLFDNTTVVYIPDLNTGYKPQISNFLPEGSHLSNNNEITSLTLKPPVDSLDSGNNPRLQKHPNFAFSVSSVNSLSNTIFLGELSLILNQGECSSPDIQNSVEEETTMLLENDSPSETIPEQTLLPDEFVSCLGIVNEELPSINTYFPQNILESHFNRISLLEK
Nature of the series: IL23R Reporter Assay. In kind it is cell-based. Particulars: HEK293 cells containing IL-23R, IL-12RP1 and STAT-inducible firefly luciferase reporter; 10 ng/mL IL-23 (EC90); 5 h at 37° C.; read-out: IL23R Reporter Assay. In general terms: In a reporter assay the amount or activity of a reporter protein is the signal.

Series [1] is described as follows: Exposed Polar Surface Area (EPSA). In kind it is physicochemical. The note with it: SFC on Chirex 3014 column; sample 1 mM DMSO stock; read-out: EPSA. In a few lines:
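Polarity measured by SFC on a Chirex 3014 column (35 °C, 4 mL/min) with methanol/ammonium formate in CO2 as gradient eluent. Retention times were normalised to EPSA (Å^2) against eight reference compounds.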

Starred links: 1 amine or outer side, 2 acyl side, 3 side chain; linkers in the order of their positions; H or OH if unused. Positions of bridges follow the written chain, without caps; N, C: chain ends. Non-standard residues stand in square brackets, D forms with d. Residues, ends and D or L forms follow the SMILES beside them. *: point of attachment. Trp(7-(3-AcNH-Ph)) = CC(=O)Nc1cccc(-c2cccc3c(C[C@H](N)C(=O)O)c[nH]c23)c1; X16 = C[N+](C)(C)Cc1cn(-c2ccc(C[C@H](N[*:1])C(=O)[*:2])cc2)nn1; Me3N+(CH2)2O(CH2)2O(CH2)2CO = C[N+](C)(C)CCOCCOCCC(=O)*; CH2CH2OCH2CH2OCH2CH2NMe3+ = C[N+](C)(C)CCOCCOCC*; Trp(7-Me) = Cc1cccc2c(C[C@H](N)C(=O)O)c[nH]c12; dLys(Me3) = C[N+](C)(C)CCCC[C@@H](N)C(=O)O; CH2CH2OCH2CH2NMe3+ = C[N+](C)(C)CCOCC*; 2Nal = N[C@@H](Cc1ccc2ccccc2c1)C(=O)O; AEF = NCCOc1ccc(C[C@H](N)C(=O)O)cc1; 3Pal = N[C@@H](Cc1cccnc1)C(=O)O; Ethyl(2-guanidino) = N=C(N)NCC*; Lys(Me) = CNCCCC[C@H](N)C(=O)O; Pen = CC(C)(S)[C@H](N)C(=O)O; Thp = NC1(C(=O)O)CCOCC1; X3 = C[N+](C)(C)CCCCC*; Sar = CNCC(=O)O

Consider `CC(=O)N(C)CCCC[C@@H]1NC(=O)[C@H](Cc2c[nH]c3c(C)cccc23)NC(=O)[C@H]([C@@H](C)O)NC(=O)[C@H](CC(=O)N(C)C)NC(=O)[C@@H](NC(=O)CCOCCOCC[N+](C)(C)C)C(C)(C)SSC(C)(C)[C@@H](C(=O)N[C@@H](Cc2ccc(OCCCCC[N+](C)(C)C)cc2)C(=O)N[C@@H](Cc2ccc3ccccc3c2)C(=O)NC2(C(=O)N[C@@H](CCCCN(C)C(C)=O)C(=O)N[C@@H](CC(N)=O)C(=O)N[C@@H](Cc3cccnc3)C(=O)N(C)CC(N)=O)CCOCC2)NC1=O` [compound 326, cPEG3aCO-Pen(3)-N(N(Me)2)-T-7MeW-K(NMeAc)-Pen(3)-TMAPF-2Nal-THP-K(NMeAc)-N-3Pya-Sar-CONH2] ({Me3N+(CH2)2O(CH2)2O(CH2)2CO}-[Pen]D(NMe2)T[Trp(7-Me)][Lys(Me)](Ac)[Pen]Y(X3)[2Nal][Thp][Lys(Me)](Ac)N[3Pal][Sar]-NH2; disulfide 1-6), for which the IC50 at IL-23R stood at 0.85 nM. Further, in series [1], the EPSA stood at 157 A^2.

As for `CC(=O)N(C)CCCC[C@H](NC(=O)[C@H](CC(C)C)NC(=O)[C@H](Cc1ccc2ccccc2c1)NC(=O)[C@H](Cc1ccc(OCCOCCOCC[N+](C)(C)C)cc1)NC(=O)[C@H]1NC(=O)[C@H](CC(C)C)NC(=O)[C@H](Cc2c[nH]c3c(C)cccc23)NC(=O)[C@H]([C@@H](C)O)NC(=O)[C@H](CC(C)C)NC(=O)[C@@H](NC(=O)CCOCCOCC[N+](C)(C)C)C(C)(C)SSC1(C)C)C(=O)N[C@@H](CC(N)=O)C(=O)N[C@@H](Cc1cccnc1)C(=O)N(C)CC(=O)N(C)C` [compound 463, cPEG3aCO-Pen(3)-L-T-7MeW-L-Pen(3)-APEG3f-2Nal-L-K(NMeAc)-N-3Pya-Sar-CON(Me)2] ({Me3N+(CH2)2O(CH2)2O(CH2)2CO}-[Pen]LT[Trp(7-Me)]L[Pen]Y(CH2CH2OCH2CH2OCH2CH2NMe3+)[2Nal]L[Lys(Me)](Ac)N[3Pal][Sar]-NMe2; disulfide 1-6), on IL-23R, the IC50 came out at 9 nM. Further, the EPSA in series [1] came to 151 A^2.

Regarding `CC(=O)NCCCC[C@@H]1NC(=O)[C@H](Cc2c[nH]c3c(-c4cccc(NC(C)=O)c4)cccc23)NC(=O)[C@H]([C@@H](C)O)NC(=O)[C@H](CC(N)=O)NC(=O)[C@@H](NC(C)=O)C(C)(C)SSC(C)(C)[C@@H](C(=O)N[C@@H](Cc2ccc(OCCCCC[N+](C)(C)C)cc2)C(=O)N[C@@H](Cc2ccc3ccccc3c2)C(=O)NC2(C(=O)N[C@@H](CCC(=O)O)C(=O)N[C@@H](CC(N)=O)C(=O)N[C@@H](Cc3cncc(C)c3)C(=O)N(C)CC(N)=O)CCOCC2)NC1=O` [compound 504, MeCO-Pen(3)-N-T-7(3NAcPh)W-K(Ac)-Pen(3)-TMAPF-2Nal-THP-E-N-5MePyridinAla-Sar-CONH2], on IL-23R, the IC50 came out at 8.6 nM. In addition, in series [1], the EPSA is 178 A^2.

Turning to `CC(=O)N(C)CCCC[C@H](NC(=O)C1(NC(=O)[C@H](Cc2ccc3ccccc3c2)NC(=O)[C@H](Cc2ccc(OCCN)cc2)NC(=O)[C@H]2NC(=O)[C@H](COCCOCC[N+](C)(C)C)NC(=O)[C@H](Cc3c[nH]c4c(C)cccc34)NC(=O)[C@H]([C@@H](C)O)NC(=O)[C@H](CC(=O)N(C)C)NC(=O)[C@@H](NC(=O)CCOCCOCC[N+](C)(C)C)C(C)(C)SSC2(C)C)CCOCC1)C(=O)N[C@@H](CC(N)=O)C(=O)N[C@@H](Cc1cccnc1)C(=O)N(C)CC(=O)N(C)C` [compound 245, cPEG3aCO-Pen(3)-N(N(Me)2)-T-7MeW-APEG2Ser-Pen(3)-AEF-2Nal-THP-K(NMeAc)-N-3Pya-Sar-CON(Me)2] ({Me3N+(CH2)2O(CH2)2O(CH2)2CO}-[Pen]D(NMe2)T[Trp(7-Me)]S(CH2CH2OCH2CH2NMe3+)[Pen][AEF][2Nal][Thp][Lys(Me)](Ac)N[3Pal][Sar]-NMe2; disulfide 1-6), the IC50 at IL-23R is 42 nM. Moreover, the EPSA in series [1] was 148 A^2.

Turning to `CC(=O)NCCCC[C@@H]1NC(=O)[C@H](Cc2c[nH]c3c(-c4cccc(NC(C)=O)c4)cccc23)NC(=O)[C@H]([C@@H](C)O)NC(=O)[C@H](CC(N)=O)NC(=O)[C@@H](NC(=O)[C@@H](CCCC[N+](C)(C)C)NC(C)=O)C(C)(C)SSC(C)(C)[C@@H](C(=O)N[C@@H](Cc2ccc(OCCCCC[N+](C)(C)C)cc2)C(=O)N[C@@H](Cc2ccc3ccccc3c2)C(=O)NC2(C(=O)N[C@@H](CCC(=O)O)C(=O)N[C@@H](CC(N)=O)C(=O)N[C@@H](Cc3cccnc3)C(=O)N(C)CC(N)=O)CCOCC2)NC1=O` [compound 448, MeCO-k(Me)3-Pen(3)-N-T-7(3NAcPh)W-K(Ac)-Pen(3)-TMAPF-2Nal-THP-E-N-3Pya-Sar-CONH2] (Ac-[dLys(Me3)][Pen]NT[Trp(7-(3-AcNH-Ph))]K(Ac)[Pen]Y(X3)[2Nal][Thp]EN[3Pal][Sar]-NH2; disulfide 2-7), the IC50 on IL-23R was 2 nM. Further, the EPSA in series [1] is 176 A^2.

With `CC(=O)NCCCC[C@@H]1NC(=O)[C@H](Cc2c[nH]c3c(-c4cccc(NC(C)=O)c4)cccc23)NC(=O)[C@H]([C@@H](C)O)NC(=O)[C@H](CC(N)=O)NC(=O)[C@@H](NC(=O)[C@@H](CCCC[N+](C)(C)C)NC(C)=O)C(C)(C)SSC(C)(C)[C@@H](C(=O)N[C@@H](Cc2ccc(OCCNC(=N)N)cc2)C(=O)N[C@@H](Cc2ccc3ccccc3c2)C(=O)NC2(C(=O)N[C@@H](CCC(=O)O)C(=O)N[C@@H](CC(N)=O)C(=O)N[C@@H](Cc3cccnc3)C(=O)N(C)CC(N)=O)CCOCC2)NC1=O` [compound 563, MeCO-k(Me)3-Pen(3)-N-T-7(3NAcPh)W-K(Ac)-Pen(3)-AEF(G)-2Nal-THP-E-N-3Pya-Sar-CONH2] (Ac-[dLys(Me3)][Pen]NT[Trp(7-(3-AcNH-Ph))]K(Ac)[Pen]Y(Ethyl(2-guanidino))[2Nal][Thp]EN[3Pal][Sar]-NH2; disulfide 2-7), the IC50 on IL-23R turned out to be 1.5 nM. The EPSA in series [1] came out at 194 A^2.

With `CC(=O)N(C)CCCC[C@@H]1NC(=O)[C@H](Cc2c[nH]c3c(C)cccc23)NC(=O)[C@H]([C@@H](C)O)NC(=O)[C@H](C)NC(=O)[C@@H](NC(=O)CCOCCOCC[N+](C)(C)C)C(C)(C)SSC(C)(C)[C@@H](C(=O)N[C@@H](Cc2ccc(OCCCCC[N+](C)(C)C)cc2)C(=O)N[C@@H](Cc2ccc3ccccc3c2)C(=O)NC2(C(=O)N[C@@H](CCCCN(C)C(C)=O)C(=O)N[C@@H](CC(N)=O)C(=O)N[C@@H](Cc3cccnc3)C(=O)N(C)CC(=O)N(C)C)CCOCC2)NC1=O` [compound 496, cPEG3aCO-Pen(3)-a-T-7MeW-K(NMeAc)-Pen(3)-TMAPF-2Nal-THP-K(NMeAc)-N-3Pya-Sar-CON(Me)2] ({Me3N+(CH2)2O(CH2)2O(CH2)2CO}-[Pen]AT[Trp(7-Me)][Lys(Me)](Ac)[Pen]Y(X3)[2Nal][Thp][Lys(Me)](Ac)N[3Pal][Sar]-NMe2; disulfide 1-6), the IC50 on IL-23R is 6 nM. Besides, the EPSA in series [1] is 161 A^2.

In the case of `CC(=O)N[C@@H]1C(=O)N[C@@H](CC(=O)N(C)C)C(=O)N[C@@H]([C@@H](C)O)C(=O)N[C@@H](Cc2c[nH]c3c(C)cccc23)C(=O)N[C@H](COCCOCC[N+](C)(C)C)C(=O)N[C@H](C(=O)N[C@@H](Cc2ccc(OCCOCCOCC[N+](C)(C)C)cc2)C(=O)N[C@@H](Cc2ccc3ccccc3c2)C(=O)NC2(C(=O)N[C@@H](CCCCN(C)C(C)=O)C(=O)N[C@@H](CC(N)=O)C(=O)N[C@@H](Cc3cccnc3)C(=O)N(C)CC(=O)N(C)C)CCOCC2)C(C)(C)SSC1(C)C` (relative stereo) [compound 268, MeCO-Pen(3)-N(N(Me)2)-T-7MeW-APEG2Ser(R*)-Pen(3)-APEG3F-2Nal-THP-K(NMeAc)-N-3Pya-Sar-CON(Me)2], the IC50 on IL-23R was found to be 110 nM. For the same compound, the EPSA in series [1] was found to be 148 A^2.

On to `CC(=O)NCCCC[C@@H]1NC(=O)[C@H](Cc2c[nH]c3c(C)cccc23)NC(=O)[C@H]([C@@H](C)O)NC(=O)[C@H](CC(N)=O)NC(=O)[C@@H](NC(=O)CCOCCOCC[N+](C)(C)C)C(C)(C)SSC(C)(C)[C@@H](C(=O)N[C@@H](Cc2ccc(-n3cc(C[N+](C)(C)C)nn3)cc2)C(=O)N[C@@H](Cc2ccc3ccccc3c2)C(=O)NC2(C(=O)N[C@@H](CCCCNC(C)=O)C(=O)N[C@@H](CC(N)=O)C(=O)N[C@@H](Cc3cccnc3)C(=O)N(C)CC(N)=O)CCOCC2)NC1=O` [compound 438, cPEG3aCO-Pen(3)-N-T-7MeW-K(Ac)-Pen(3)-F(4TzlTMA1)-2Nal-THP-K(Ac)-N-3Pya-Sar-CONH2] ({Me3N+(CH2)2O(CH2)2O(CH2)2CO}-[Pen]NT[Trp(7-Me)]K(Ac)[Pen][X16][2Nal][Thp]K(Ac)N[3Pal][Sar]-NH2; disulfide 1-6), for which the IC50 on IL-23R amounted to 3.4 nM. Further, the EPSA in series [1] worked out at 167 A^2.
